These results are taken from patent publication US11629341B2, “Method for producing selenoneine” (KIKKOMAN CORPORATION, priority 2015, dated 2023).

For data set [1] the following is noted: compared with ergothioneine; cited from earlier work.
The next data set has as its system E. coli. As to the kind of experiment: main culture of transformed E. coli in TY medium containing selenocystine. It is filed as cell-based. As to conditions: TY++ line: 0.1 mM selenocystine present during the initial stage of culture, 25° C. As to the method: In a 19 ml test tube, each of the bacterial strains shown in Table 13 was inoculated into 2.5 ml of a TY medium. The inoculated medium was then seed-cultured at 37° C. for 16 hours while agitated at 180 rpm. In a 19 ml test tube, 20 μl of the seed culture was inoculated into 2.5 ml of a TY medium containing ampicillin and 0.5 mM IPTG. The inoculated medium was then main-cultured at 25° C. for 20.5 hours while agitated at 180 rpm. Three different lines of TY medium were prepared for the main culture: a TY medium containing 0.1 mM selenocystine (TY++), a TY medium containing 0.01 mM selenocystine (TY+), and a TY medium to which selenocystine was added to 0.01 mM six hours after the start of culture (TY+∘).
In addition, the amount of selenoneine produced by the (EcEgtA+EcEgtC) transformant was higher than that of the EcEgtA transformant and the difference between the two transformants was more significant in the culture supernatants.

On to `C[N+](C)(C)[C@@H](Cc1cnc([Se-])[nH]1)C(=O)O` [selenoneine], for which the “antioxidant activity relative to ergothioneine” value in data set [1] is given as 1,000 times. For `N[C@@H](C[Se][Se]C[C@H](N)C(=O)O)C(=O)O` [selenocystine], the growth inhibition entry in the data set on E. coli is given as “caused growth inhibition”.
